What all share (assay): Kinase assay, binding constants (Kd), kinase-tagged T7 phage, qPCR
One assay addresses FGFR2 (Homo sapiens (Human), UniProt P21802). The method in brief: (§1)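 Competition binding: kinase-tagged T7 phage lysates mixed with immobilized biotinylated ligand on streptavidin beads plus compound (11-point 3-fold dilution series, 0.9% DMSO final). Bound kinase eluted with free ligand and quantified by qPCR. Kd from Hill equation fit, slope fixed at −1.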
The next assay deals with FGFR3 (Homo sapiens (Human), UniProt P22607). The method in brief: as §1
The next assay addresses FGFR4 (Homo sapiens (Human), UniProt P22455). The method in brief: as §1
Another assay deals with FGFR1 (Homo sapiens (Human), UniProt P11362). The method in brief:
as §1

The next assay has as its target FGFR3 (V555M) (Homo sapiens (Human), UniProt P22607, V555M). The conditions noted are these: V555M mutant. The method, boiled down: as §1

FGFR1, sequence (P11362 22-822): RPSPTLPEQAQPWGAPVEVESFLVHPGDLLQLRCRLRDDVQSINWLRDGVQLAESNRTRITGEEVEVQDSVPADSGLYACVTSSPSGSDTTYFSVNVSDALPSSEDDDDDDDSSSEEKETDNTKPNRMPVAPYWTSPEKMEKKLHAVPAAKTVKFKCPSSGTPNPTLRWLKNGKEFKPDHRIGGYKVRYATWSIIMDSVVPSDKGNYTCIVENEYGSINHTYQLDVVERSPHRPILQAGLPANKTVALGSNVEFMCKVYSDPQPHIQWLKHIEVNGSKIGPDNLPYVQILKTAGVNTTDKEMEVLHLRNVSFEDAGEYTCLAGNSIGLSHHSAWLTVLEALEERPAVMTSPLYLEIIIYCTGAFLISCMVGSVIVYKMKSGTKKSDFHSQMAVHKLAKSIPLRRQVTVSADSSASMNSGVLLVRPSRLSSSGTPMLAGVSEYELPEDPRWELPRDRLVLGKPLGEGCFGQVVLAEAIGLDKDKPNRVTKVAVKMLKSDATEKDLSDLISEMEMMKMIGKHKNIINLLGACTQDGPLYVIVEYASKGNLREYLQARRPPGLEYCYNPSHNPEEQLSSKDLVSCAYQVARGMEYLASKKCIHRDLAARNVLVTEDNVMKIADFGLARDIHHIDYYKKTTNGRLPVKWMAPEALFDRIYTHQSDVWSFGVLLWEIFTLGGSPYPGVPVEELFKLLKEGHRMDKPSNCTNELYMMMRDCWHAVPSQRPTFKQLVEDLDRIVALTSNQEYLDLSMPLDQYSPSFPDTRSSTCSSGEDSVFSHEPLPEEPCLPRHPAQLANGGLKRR
FGFR2, sequence (P21802 22-821): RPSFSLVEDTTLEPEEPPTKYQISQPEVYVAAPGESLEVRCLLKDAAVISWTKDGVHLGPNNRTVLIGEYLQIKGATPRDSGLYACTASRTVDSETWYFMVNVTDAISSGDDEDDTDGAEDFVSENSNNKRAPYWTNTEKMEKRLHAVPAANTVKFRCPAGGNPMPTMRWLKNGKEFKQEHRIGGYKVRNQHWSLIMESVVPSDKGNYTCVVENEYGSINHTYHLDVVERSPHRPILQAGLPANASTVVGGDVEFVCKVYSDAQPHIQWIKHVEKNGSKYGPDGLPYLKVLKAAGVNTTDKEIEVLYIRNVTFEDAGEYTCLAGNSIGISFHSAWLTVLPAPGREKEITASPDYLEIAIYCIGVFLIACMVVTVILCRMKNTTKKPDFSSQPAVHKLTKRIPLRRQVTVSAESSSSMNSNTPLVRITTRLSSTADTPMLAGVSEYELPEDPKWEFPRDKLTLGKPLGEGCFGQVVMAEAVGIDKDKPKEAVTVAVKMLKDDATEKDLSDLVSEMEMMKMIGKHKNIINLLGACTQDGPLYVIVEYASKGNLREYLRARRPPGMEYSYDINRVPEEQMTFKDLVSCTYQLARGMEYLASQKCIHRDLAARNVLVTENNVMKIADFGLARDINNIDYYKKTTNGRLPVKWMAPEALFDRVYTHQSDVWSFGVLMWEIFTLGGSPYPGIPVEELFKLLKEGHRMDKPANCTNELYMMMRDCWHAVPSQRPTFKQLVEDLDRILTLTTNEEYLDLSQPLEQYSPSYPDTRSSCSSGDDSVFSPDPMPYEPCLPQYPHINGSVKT
FGFR3 (V555M), sequence (P22607 23-806 V555M): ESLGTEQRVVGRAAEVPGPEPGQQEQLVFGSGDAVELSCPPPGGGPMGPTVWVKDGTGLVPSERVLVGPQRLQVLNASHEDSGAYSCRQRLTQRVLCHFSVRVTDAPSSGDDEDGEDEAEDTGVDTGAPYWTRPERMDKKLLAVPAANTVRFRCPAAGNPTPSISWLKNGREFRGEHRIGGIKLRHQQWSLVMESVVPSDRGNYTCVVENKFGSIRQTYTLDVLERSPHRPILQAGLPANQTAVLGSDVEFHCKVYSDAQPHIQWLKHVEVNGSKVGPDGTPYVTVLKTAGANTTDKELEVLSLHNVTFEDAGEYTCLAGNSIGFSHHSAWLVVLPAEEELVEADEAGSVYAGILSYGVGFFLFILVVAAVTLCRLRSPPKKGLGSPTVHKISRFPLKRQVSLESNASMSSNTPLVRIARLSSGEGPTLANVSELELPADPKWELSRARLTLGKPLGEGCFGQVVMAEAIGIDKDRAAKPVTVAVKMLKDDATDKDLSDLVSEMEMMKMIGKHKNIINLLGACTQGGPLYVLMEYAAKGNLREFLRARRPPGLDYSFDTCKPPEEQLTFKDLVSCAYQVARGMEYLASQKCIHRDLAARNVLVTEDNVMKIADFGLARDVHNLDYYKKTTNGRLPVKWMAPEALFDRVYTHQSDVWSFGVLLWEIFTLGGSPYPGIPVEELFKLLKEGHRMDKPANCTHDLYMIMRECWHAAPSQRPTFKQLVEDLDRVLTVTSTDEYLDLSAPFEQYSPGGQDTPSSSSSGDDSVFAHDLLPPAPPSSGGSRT
FGFR4, sequence (P22455 22-802): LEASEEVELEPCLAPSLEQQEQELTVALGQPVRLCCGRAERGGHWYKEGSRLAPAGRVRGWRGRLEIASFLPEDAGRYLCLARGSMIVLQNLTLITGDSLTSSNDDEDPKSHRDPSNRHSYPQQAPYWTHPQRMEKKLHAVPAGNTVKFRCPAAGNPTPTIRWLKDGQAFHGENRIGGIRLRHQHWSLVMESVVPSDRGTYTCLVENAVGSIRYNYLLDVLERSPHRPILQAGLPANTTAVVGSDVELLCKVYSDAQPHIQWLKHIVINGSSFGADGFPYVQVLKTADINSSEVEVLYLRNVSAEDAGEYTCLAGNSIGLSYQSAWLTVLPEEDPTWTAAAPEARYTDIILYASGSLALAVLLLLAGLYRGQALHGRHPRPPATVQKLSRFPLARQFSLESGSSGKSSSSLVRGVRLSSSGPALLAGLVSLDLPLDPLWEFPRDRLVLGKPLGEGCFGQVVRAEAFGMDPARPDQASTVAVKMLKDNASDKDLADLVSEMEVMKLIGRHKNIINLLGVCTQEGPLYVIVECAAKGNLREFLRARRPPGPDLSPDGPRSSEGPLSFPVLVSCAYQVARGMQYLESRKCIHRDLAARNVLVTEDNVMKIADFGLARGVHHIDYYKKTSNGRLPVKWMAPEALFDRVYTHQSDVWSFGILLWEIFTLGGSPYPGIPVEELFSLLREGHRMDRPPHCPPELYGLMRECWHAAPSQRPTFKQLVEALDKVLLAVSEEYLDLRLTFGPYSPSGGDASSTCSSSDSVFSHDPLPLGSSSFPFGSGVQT
FGFR3, sequence (P22607 23-806): as the sequence (P22607 23-806 V555M) above, with M533V counted along it

Regarding `C[C@@H](Oc1ccc2[nH]nc(-c3cnc(N4CC[C@H]4CO)c(C#N)c3)c2c1)c1c(Cl)cncc1Cl` [Example 354, 5-(5-((R)-1-(3,5-dichloropyridin-4-yl)ethoxy)-1H-indazol-3-yl)-2-((S)-2-(hydroxymethyl)azetidin-1-yl)nicotinonitrile], the dissociation constant Kd fell in the range of 20 to 100 nM at FGFR2; 1 to 20 nM at FGFR3; 1 to 20 nM at FGFR4; 20 to 100 nM at FGFR1; 1 to 20 nM at FGFR3 (V555M).

Regarding `C[C@@H](Oc1cc2c(-c3cnc(N4CC5(C4)CN(S(C)(=O)=O)C5)c(C#N)c3)n[nH]c2cc1F)c1c(Cl)cncc1Cl` [Example 355, (R)-5-(5-(1-(3,5-dichloropyridin-4-yl)ethoxy)-6-fluoro-1H-indazol-3-yl)-2-(6-(methylsulfonyl)-2,6-diazaspiro[3.3]heptan-2-yl)nicotinonitrile], the Kd at FGFR2 fell in the range of 20 to 100 nM; on FGFR3 it was 1 to 20 nM; on FGFR4, 1 to 20 nM; on FGFR1 it was 1 to 20 nM; at FGFR3 (V555M) it was 1 to 20 nM.

For `C[C@@H](Oc1ccc2[nH]nc(-c3cnc(N4CC5(C4)CN(S(C)(=O)=O)C5)c(CN(C)C)c3)c2c1)c1c(Cl)cncc1Cl` [Example 356, (R)-1-(5-(5-(1-(3,5-dichloropyridin-4-yl)ethoxy)-1H-indazol-3-yl)-2-(6-(methylsulfonyl)-2,6-diazaspiro[3.3]heptan-2-yl)pyridin-3-yl)-N,N-dimethylmethanamine], the Kd was greater than 300 nM on FGFR2; greater than 300 nM on FGFR3; 20 to 100 nM on FGFR4; greater than 300 nM at FGFR1; 100 to 300 nM on FGFR3 (V555M).

With `COc1cc2[nH]nc(-c3cnc(N4CC5(C4)CN(S(C)(=O)=O)C5)c(CN(C)C)c3)c2cc1O[C@H](C)c1c(Cl)cncc1Cl` [Example 357, (R)-1-(5-(5-(1-(3,5-dichloropyridin-4-yl)ethoxy)-6-methoxy-1H-indazol-3-yl)-2-(6-(methylsulfonyl)-2,6-diazaspiro[3.3]heptan-2-yl)pyridin-3-yl)-N,N-dimethylmethanamine], the dissociation constant Kd on FGFR2 is greater than 300 nM; on FGFR3, 100 to 300 nM; at FGFR4, 1 to 20 nM; on FGFR1, greater than 300 nM; at FGFR3 (V555M), 20 to 100 nM.

On to `C[C@@H](Oc1ccc2[nH]nc(-c3cnc(N4CC(C)(N)C4)c(C#N)c3)c2c1)c1c(Cl)cncc1Cl` [Example 358, (R)-2-(3-amino-3-methylazetidin-1-yl)-5-(5-(1-(3,5-dichloropyridin-4-yl)ethoxy)-1H-indazol-3-yl)nicotinonitrile], for which the Kd on FGFR2 fell in the range of 100 to 300 nM; on FGFR3, 1 to 20 nM; at FGFR4, 1 to 20 nM; at FGFR1 it was 20 to 100 nM; on FGFR3 (V555M), 1 to 20 nM.

For `C[C@@H](Oc1cc2c(-c3cnc(N4CC5(C4)CN(S(C)(=O)=O)C5)c(C#N)c3)n[nH]c2cc1Cl)c1c(Cl)cncc1Cl` [Example 359, (R)-5-(6-chloro-5-(1-(3,5-dichloropyridin-4-yl)ethoxy)-1H-indazol-3-yl)-2-(6-(methylsulfonyl)-2,6-diazaspiro[3.3]heptan-2-yl)nicotinonitrile], the Kd on FGFR2 was 20 to 100 nM; on FGFR3, 1 to 20 nM; at FGFR4, 1 to 20 nM; on FGFR1, 20 to 100 nM; at FGFR3 (V555M), greater than 300 nM.

In the case of `COc1cc2[nH]nc(-c3cnc(N4CCC4)c(C#N)c3)c2cc1O[C@H](C)c1c(Cl)cnnc1Cl` [Example 360, (R)-2-(azetidin-1-yl)-5-(5-(1-(3,5-dichloropyridazin-4-yl)ethoxy)-6-methoxy-1H-indazol-3-yl)nicotinonitrile], the Kd on FGFR2 was 20 to 100 nM; on FGFR3, 20 to 100 nM; at FGFR4 it was 1 to 20 nM; on FGFR1 it was 100 to 300 nM; on FGFR3 (V555M) it was greater than 300 nM.

`C[C@@H](Oc1ccc2[nH]nc(-c3cnc(N4CCC4)c(C#N)c3)c2c1)c1c(Cl)cnnc1Cl` [Example 361, (R)-2-(azetidin-1-yl)-5-(5-(1-(3,5-dichloropyridazin-4-yl)ethoxy)-1H-indazol-3-yl)nicotinonitrile]: the Kd at FGFR2 was 100 to 300 nM; at FGFR3 it was 100 to 300 nM; on FGFR4, 1 to 20 nM; at FGFR1, greater than 300 nM; on FGFR3 (V555M) it was 100 to 300 nM.

In the case of `C[C@@H](Oc1cc2c(-c3cnc(N4CC5(CCCS(=O)(=O)C5)C4)c(C#N)c3)n[nH]c2cc1F)c1c(Cl)cncc1Cl` [Example 362], the Kd at FGFR2 was in the range of 100 to 300 nM; on FGFR3, 1 to 20 nM; at FGFR4 it was 1 to 20 nM; on FGFR1, 20 to 100 nM; on FGFR3 (V555M), 1 to 20 nM.

Consider `C[C@@H](Oc1ccc2[nH]nc(-c3cnc(N4CCC4CN(C)C)c(C#N)c3)c2c1)c1c(Cl)cncc1Cl` (stereo partly drawn) [Example 363, 5-(5-((R)-1-(3,5-dichloropyridin-4-yl)ethoxy)-1H-indazol-3-yl)-2-(2-((dimethylamino)methyl)azetidin-1-yl)nicotinonitrile], for which the Kd at FGFR2, at FGFR3, at FGFR4, at FGFR1 and at FGFR3 (V555M) was greater than 300 nM in each case.

Consider `C[C@@H](Oc1cc2c(-c3cnc(N4CC(C)(C)C4)c(C#N)c3)n[nH]c2cc1Cl)c1c(Cl)cncc1Cl` [Example 364, (R)-5-(6-chloro-5-(1-(3,5-dichloropyridin-4-yl)ethoxy)-1H-indazol-3-yl)-2-(3,3-dimethylazetidin-1-yl)nicotinonitrile], for which the equilibrium dissociation constant (Kd) at FGFR2 was 1 to 20 nM; at FGFR3, 1 to 20 nM; on FGFR4 it was 20 to 100 nM; on FGFR1, 20 to 100 nM; at FGFR3 (V555M), 1 to 20 nM.

Regarding `C[C@@H](Oc1cc2c(-c3cnc(N4CC[C@@H]4C)c(C#N)c3)n[nH]c2cc1Cl)c1c(Cl)cncc1Cl` [Example 365, 5-(6-chloro-5-((R)-1-(3,5-dichloropyridin-4-yl)ethoxy)-1H-indazol-3-yl)-2-((S)-2-methylazetidin-1-yl)nicotinonitrile], the Kd on FGFR2 was greater than 300 nM; at FGFR3, 100 to 300 nM; on FGFR4 it was 20 to 100 nM; on FGFR1, greater than 300 nM; on FGFR3 (V555M), 100 to 300 nM.

With `C[C@@H](Oc1cc2c(-c3cnc(N4CCC4)c(CN(C)C)c3)n[nH]c2cc1Cl)c1c(Cl)cncc1Cl` [Example 366, (R)-1-(2-(azetidin-1-yl)-5-(6-chloro-5-(1-(3,5-dichloropyridin-4-yl)ethoxy)-1H-indazol-3-yl)pyridin-3-yl)-N,N-dimethylmethanamine], the Kd at FGFR2 was greater than 300 nM; at FGFR3, 20 to 100 nM; on FGFR4 it was 1 to 20 nM; at FGFR1, 100 to 300 nM; at FGFR3 (V555M) it was 20 to 100 nM.

Turning to `COc1cc2[nH]nc(-c3cnc(N4CCC4)c(S(C)(=O)=O)c3)c2cc1O[C@H](C)c1c(Cl)cncc1Cl` [Example 367, (R)-3-(6-(azetidin-1-yl)-5-(methylsulfonyl)pyridin-3-yl)-5-(1-(3,5-dichloropyridin-4-yl)ethoxy)-6-methoxy-1H-indazole], the Kd is greater than 300 nM at FGFR2; 100 to 300 nM at FGFR3; 20 to 100 nM at FGFR4; greater than 300 nM on FGFR1; 20 to 100 nM at FGFR3 (V555M).

Turning to `CNCc1cc(-c2n[nH]c3ccc(O[C@H](C)c4c(Cl)cncc4Cl)cc23)cnc1N1CC2(C1)CN(S(C)(=O)=O)C2` [Example 368, (R)-1-(5-(5-(1-(3,5-dichloropyridin-4-yl)ethoxy)-1H-indazol-3-yl)-2-(6-(methylsulfonyl)-2,6-diazaspiro[3.3]heptan-2-yl)pyridin-3-yl)-N-methylmethanamine], the dissociation constant (Kd) is greater than 300 nM at FGFR2; greater than 300 nM at FGFR3; 100 to 300 nM on FGFR4; greater than 300 nM on FGFR1; 100 to 300 nM on FGFR3 (V555M).

As for `CNCc1cc(-c2n[nH]c3cc(OC)c(O[C@H](C)c4c(Cl)cncc4Cl)cc23)cnc1N1CC2(C1)CN(S(C)(=O)=O)C2` [Example 369, (R)-1-(5-(5-(1-(3,5-dichloropyridin-4-yl)ethoxy)-6-methoxy-1H-indazol-3-yl)-2-(6-(methylsulfonyl)-2,6-diazaspiro[3.3]heptan-2-yl)pyridin-3-yl)-N-methylmethanamine], the Kd on FGFR2 is greater than 300 nM; on FGFR3 it was 20 to 100 nM; at FGFR4, 20 to 100 nM; on FGFR1, greater than 300 nM; on FGFR3 (V555M) it was 20 to 100 nM.

`C[C@@H](Oc1cc2c(-c3cnc(N4CCC4)c(S(C)(=O)=O)c3)n[nH]c2cc1Cl)c1c(Cl)cncc1Cl` [Example 370, (R)-3-(6-(azetidin-1-yl)-5-(methylsulfonyl)pyridin-3-yl)-6-chloro-5-(1-(3,5-dichloropyridin-4-yl)ethoxy)-1H-indazole]: the Kd at FGFR2 was greater than 300 nM; on FGFR3, 20 to 100 nM; at FGFR4, 20 to 100 nM; on FGFR1, greater than 300 nM; on FGFR3 (V555M), 20 to 100 nM.

Turning to `C[C@@H](Oc1cc2c(-c3cnc(N4CC(C)(C)C4)c(CN(C)C)c3)n[nH]c2cc1Cl)c1c(Cl)cncc1Cl` [Example 371, (R)-1-(5-(6-chloro-5-(1-(3,5-dichloropyridin-4-yl)ethoxy)-1H-indazol-3-yl)-2-(3,3-dimethylazetidin-1-yl)pyridin-3-yl)-N,N-dimethylmethanamine], the Kd was greater than 300 nM at FGFR2; greater than 300 nM at FGFR3; 100 to 300 nM at FGFR4; greater than 300 nM at FGFR1; greater than 300 nM on FGFR3 (V555M).

For the compound `COc1cc2[nH]nc(-c3cnc(N4CC[C@H]4C)c(S(C)(=O)=O)c3)c2cc1O[C@H](C)c1c(Cl)cncc1Cl` [Example 372, 5-((R)-1-(3,5-dichloropyridin-4-yl)ethoxy)-6-methoxy-3-(6-((R)-2-methylazetidin-1-yl)-5-(methylsulfonyl)pyridin-3-yl)-1H-indazole], the equilibrium dissociation constant (Kd) is 100 to 300 nM at FGFR2; 20 to 100 nM at FGFR3; 1 to 20 nM on FGFR4; 100 to 300 nM on FGFR1; 1 to 20 nM at FGFR3 (V555M).

Broadly, the Kd is the equilibrium constant for the complex coming apart. A lower Kd goes with tighter binding.
